Source: PubChem BioAssay AID504335 (Southern Research Specialized Biocontainment Screening …, 2011)
Activity calls are given as the source filed them. The rule behind the calls is not given here.

Experiments:
[1] = tested on: mammalian cell cytotoxicity, viability; assay: dose response, cytotoxicity control for M. tuberculosis inhibitor project, purified and synthesized compounds (AID 504335)
[2] = as above; conditions: mammalian cell cytotoxicity, viability; at 100 µM (top of the series)

Cc1ccc2c(c1)c(C1=c3ccccc3=NC1=O)c(O)n2C
CC50 [1]: 10.1 µM

COC(=O)C1CC(=O)N(c2ccc(OCc3ccccc3Cl)cc2)C1 (centres undefined)
viability [2]: 90.6% (inactive)

COC(=O)CCc1nc2c(C#N)c(-c3ccc(Cl)cc3)ccn2n1
viability [2]: 99.2% (inactive)

S=c1nc[nH]c2nc[nH]c12
CC50 [1]: 38.7 µM

COc1cc(NC(=O)C/C(C)=N/NC(=O)c2ccccn2)c(OC)cc1Cl
viability [2]: 92.4% (inactive)

CCOC(=O)c1ccc(NC(=O)Cn2ncc(Cl)c(Cl)c2=O)cc1
CC50 [1]: 7.71 µM

CNc1nc(SCc2ccccc2Cl)nc2c1CCCC2
CC50 [1]: 36 µM

COC(=O)C(C)Oc1ccc(-c2nccc(-c3ccccn3)n2)cc1 (centres undefined)
viability [2]: 95.7% (inactive)

CC(=NCc1ccc2c(c1)OCO2)C1=C(O)c2ccccc2C1=O
CC50 [1]: > 100 µM (inactive)

COC(=O)c1cc(=O)n(-c2ccc(F)cc2)c(=Nc2ccc(F)cc2)s1
CC50 [1]: 25.7 µM

Cc1ccc(NC(=O)C2C3/C=C\CCCCC32)cc1C (centres undefined)
viability [2]: 87.6% (inactive)

CCOC(=O)COn1c2c(c3c4no[n+]([O-])c4ccc31)CCCC2
viability [2]: 87.8% (inactive)

O=C(CSc1nc2ccccc2c(=O)[nH]1)NCc1ccc(Cl)cc1
viability [2]: 83% (inactive)

Oc1ccccc1/C=N/Nc1ccnc(SCc2ccccc2)n1
CC50 [1]: 93.8 µM

CCc1ccc(/C=C2/C(=O)N(C)C(=S)N2CC(=O)OC)s1
viability [2]: 92% (inactive)

CCC(C)Nc1ccc(NC(C)CC)cc1 (centres undefined)
CC50 [1]: 14.3 µM

CCOC(=O)COc1ccc(/C=C2\NC(=S)N(CC)C2=O)cc1
viability [2]: 94.5% (inactive)

O=C(CSc1nc2ccccc2c(=O)[nH]1)NC1CCCCC1
viability [2]: 81.8% (inactive)

CC(C)NC(=O)c1sc(=S)n2c1[nH]c(=O)c1ccc(C(=O)NCCc3ccc(Cl)cc3)cc12
CC50 [1]: 99.9 µM

Cc1ccc2ccc3ccc(C)nc3c2n1
CC50 [1]: 58.5 µM

Cc1cccc(/C=C/C(=O)c2ccc([N+](=O)[O-])o2)c1
CC50 [1]: 20.2 µM

Cc1nc(SCC(=O)NC2CCCCC2)[nH]c(=O)c1C
viability [2]: 88.8% (inactive)

O=C(NCC(c1cccs1)N1CCOCC1)c1cc([N+](=O)[O-])cc([N+](=O)[O-])c1 (centres undefined)
CC50 [1]: 96.7 µM

O=C(/C=C\c1cccs1)N1CCN(Cc2ccc3c(c2)OCO3)CC1
viability [2]: 87.7% (inactive)
